The record followed here is US10130611B2, “Use of benzo-heterocycle derivatives for preventing and treating cancer or for inhibiting cancer metastasis” (MEDICINAL BIOCONVERGENCE RESEARCH CENTER, priority 2009, dated 2018).

Assay [1] has as its target T1, interaction between laminin receptor and GST-KRS (Homo sapiens, UniProt Q15046).
T1 construct: made in house; host or cells: GST-KRS: E. coli Rosetta (DE3); 37LRP: TNT Quick coupled Transcription/Translation system (Promega) from pcDNA3-37LRP
The assay can be described thus: In vitro pull-down of radiolabelled laminin receptor with GST-KRS. It is filed as binding. The following applies: KL1 in different amounts; GST-KRS 1 μg; autoradiography. The procedure:
(§1) As a control, an OD level of cells treated with DMSO was measured. FIG. 32 is a photograph showing cell growth in wells containing yeast cells having indicated interaction pairs in the presence or absence of CAND-KL1. In FIG. 33, in 293 cells, through co-immunoprecipitation, the KL1-dose-dependent effect on the interaction between KRS and 67LR was tested. The cells were treated with KL1 for 3 hours, 67LR was immunoprecipitated, and co-precipitation of KRS was determined by western blotting. In FIG. 34, in the presence of KL1 in indicated levels, a laminin receptor labeled with radioisotope was mixed with GST-KRS (1 μg). GST-KRS was precipitated with glutathione-Sepharose beads, and co-precipitated laminin receptor was detected with autoradiography. In FIG. 35, in A549 cells, the effect of KL1 on the intracellular level of 67LR and 37LRP was tested with western blotting. […] GST-KRS was immobilized on a CM5 Sensor Chip, and the binding was measured by a resonance unit (RU) at indicated concentrations (indicated by different colors). […]
(§2) From among the compounds, the inventors also examined whether the compound represented by Formula 15 (indicated by CAND-KL1, and KL1) can inhibit the intracellular interaction between KRS and 67LR. […] Then, 67LR was immunoprecipitated with its antibody, and co-immunoprecipitation of KRS was determined. […]

In a further assay the test system is A549 cells. Nature of the assay: Western blotting of 67LR and 37LRP levels in A549 cells. The assay is classed as cell-based, human. As to conditions: KL1 in different amounts. Here is the method: as §1, §2
The test system of the next assay is MMP2. The assay can be described thus: MMP2 activity (zymography). It is filed as cell-based, human. The following applies: KL1 in different amounts. The procedure:
On MMP2 activity (FIG. 37) and cell migration (FIGS. 38 and 39), KL1-dose-dependent effect was measured. For the test on the cell migration, the cells were treated with KL1 for 8 hours. In FIG. 40, in order to see the effect of KL1 on protein synthesis of cells, A549 cells were treated with KL1 at indicated concentrations, and starved in methionine-free medium. Then, [^35S] methionine was added thereto for 2 hours. Then, the cells were incubated in complete medium for 4 hours, and the level of added methionine was measured by a scintillation counter. In FIG. 41, KL1-dose-dependent cytotoxicity was measured by using A549 cells. In FIG. 42, the effect of KL1 on cancer metastasis was measured according to the method as described above. In each group, 6 mice were included, and KL1 was abdominally injected for 3 weeks, in a dose of 30 mg/kg once a day. Then, the mice were sacrificed. The metastasized tumor nodules over 1 mm in diameter were counted, and their average was calculated (left). The photograph of a representative lung is shown at the right side. In FIG. 43, on a KL1 treated group and a KL1 non-treated, primary tumors were observed.
A549 cells were transfected with the plasmids encoding the indicated siRNAs and recombinant KRS (or DRS) were incubated for 48 and 24 hours, respectively, and were inoculated to RPMI medium containing 10% FBS (1×10^5 cells/well). […]

Structures are written as SMILES.

T1 sequence (Q15046 whole entry): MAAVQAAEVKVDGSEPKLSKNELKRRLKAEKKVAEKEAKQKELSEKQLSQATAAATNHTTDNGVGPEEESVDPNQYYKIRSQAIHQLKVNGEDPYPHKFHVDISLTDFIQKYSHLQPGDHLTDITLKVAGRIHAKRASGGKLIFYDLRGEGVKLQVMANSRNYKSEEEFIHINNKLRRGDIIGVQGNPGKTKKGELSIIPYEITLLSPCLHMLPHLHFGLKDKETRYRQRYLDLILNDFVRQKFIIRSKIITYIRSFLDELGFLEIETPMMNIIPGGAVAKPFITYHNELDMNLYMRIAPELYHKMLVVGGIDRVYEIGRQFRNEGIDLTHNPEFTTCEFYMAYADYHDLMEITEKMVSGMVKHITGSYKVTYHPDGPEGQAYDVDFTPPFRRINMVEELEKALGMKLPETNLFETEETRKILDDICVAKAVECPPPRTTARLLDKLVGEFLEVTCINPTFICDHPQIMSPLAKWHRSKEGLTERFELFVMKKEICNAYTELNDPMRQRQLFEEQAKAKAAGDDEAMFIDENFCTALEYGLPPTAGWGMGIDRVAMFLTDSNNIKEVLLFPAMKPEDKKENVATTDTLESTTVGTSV

With `CCC(C(=O)O)n1/c(=N/C(=O)c2ccc(C)cc2)sc2ccccc21` (stereo not shown) [Compound of formula 15, 2-[2-(4-Methyl-benzoylimino)-benzothiazol-3-yl]-butyric acid], the “level of laminin receptor pulled down with GST-KRS” value in assay [1] was “decreased according to an increase of the added KL1 compound”. In addition, in the assay on A549 cells, the “cytoplasmic 37LRP level” value was “no effect” and the “intracellular level of 67LR” value was “decreased by the amount of added KL1”. Also, the MMP2 activity entry in the assay with MMP2 is recorded as “inhibited”.
